PubChem BioAssay (NCI)
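Protocol summary: plate cells (96-well), add compound at 5 concentrations, incubate 48 h, interpolate endpoints linearly. GI50 = concentration required for 50% inhibition of growth. TGI is the concentration that stops growth completely.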

Key:
Test in all cases: NCI-60 cell line screen, 48 h
[1] = test system: 786-0 renal
[2] = test system: A549 NSCLC
[3] = test system: ACHN renal
[4] = test system: DU-145 prostate
[5] = test system: HT29 colon
[6] = test system: IGROV1 ovarian
[7] = test system: NCI-H226 lung
[8] = test system: RPMI-8226 leukemia
[9] = test system: SK-OV-3 ovarian
[10] = test system: TK-10 renal

| Compound | GI50 [1] | TGI [1] | GI50 [2] | TGI [2] | GI50 [3] | TGI [3] | GI50 [4] | TGI [4] | GI50 [5] | TGI [5] | GI50 [6] | TGI [6] | GI50 [7] | TGI [7] | GI50 [8] | TGI [8] | GI50 [9] | TGI [9] | GI50 [10] | TGI [10] |
| --- | --- | --- | --- | --- | --- | --- | --- | --- | --- | --- | --- | --- | --- | --- | --- | --- | --- | --- | --- | --- |
| CCN(Cc1ccccc1)c1ccc(CO)c(Cl)c1 | 12 µM | 39.3 µM | 2.18 µM | 25.4 µM | 30.2 µM | > 100 µM | 22.5 µM | > 59.4 µM | 3.07 µM | 36.3 µM | 0.112 µM | 0.934 µM | 0.0913 µM | 0.233 µM | 5.53 µM | 44.7 µM | 5.78 µM | 35.6 µM | 0.0649 µM | 0.281 µM |
| N#CC1=C(N)Oc2c(ccc3ccccc23)C1c1ccccc1 (centres undefined) | 0.0503 µM | 13 µM | 0.0845 µM | 18.3 µM | 0.0681 µM | 14.8 µM | 0.0468 µM | 12.8 µM | 0.146 µM | 11.1 µM | 0.0654 µM | 16.9 µM | 0.463 µM | 19.4 µM | 0.0417 µM | 15 µM | 0.0796 µM | 19 µM | 7.57 µM | 27 µM |
| CCC(=O)Nc1ccccc1C#C/C=C\C#Cc1ccccc1SC | 33.6 µM | > 100 µM | 3.35 µM | > 100 µM | 30.1 µM | > 100 µM | 40.5 µM | > 100 µM | 5.2 µM | > 100 µM | 0.738 µM | 37.3 µM | 16.9 µM | > 100 µM | 1.26 µM | 11.7 µM | 53.7 µM | > 100 µM | 50.4 µM | > 100 µM |
| COc1ccc(-c2cc(-c3cccn3C)c(C#N)c(=O)[nH]2)cc1OC | > 100 µM | > 100 µM | > 100 µM | > 100 µM | > 100 µM | > 100 µM | > 100 µM | > 100 µM | > 100 µM | > 100 µM | 91.7 µM | > 100 µM | > 100 µM | > 100 µM | > 100 µM | > 100 µM | > 100 µM | > 100 µM | > 100 µM | > 100 µM |
| C=C1C(=O)O[C@H]2[C@H]1CC/C(COC(=O)C(=O)c1cn(C)c3ccc(Cl)cc13)=C\CC[C@@]1(C)O[C@@H]21 | 1.2 µM | 2.53 µM | 2.2 µM | 4.82 µM | 1.07 µM | 2.5 µM | 1.69 µM | 3.63 µM | 0.339 µM | 1.19 µM | 1.17 µM | 2.78 µM | 1.46 µM | 3.08 µM | 0.306 µM | 1.19 µM | 3.28 µM |  | 1.42 µM | 2.98 µM |
| O=c1ccs[nH]1 |  | 21.4 µM |  | 41.4 µM |  | 17.8 µM |  | > 91.3 µM |  | 34.4 µM |  | 66.5 µM |  | 71.6 µM |  | 21.8 µM |  | 72.5 µM |  | 32.8 µM |
| O=C1O/C(=C\c2ccccc2)N(c2ccccc2)C1=O |  | > 100 µM |  | > 100 µM |  | > 100 µM |  | > 100 µM |  | > 100 µM |  | > 100 µM |  | > 100 µM |  | > 100 µM |  | > 100 µM |  | > 100 µM |
| CNC(=O)c1ccc(N2C(=S)N(c3ccc(C#N)c(C(F)(F)F)c3)C(=O)C2(C)C)cc1F | > 44.2 µM | > 73.5 µM | 33.6 µM | > 95.4 µM | 22.4 µM | > 62.9 µM | 53.9 µM | > 100 µM | 43.3 µM | > 100 µM | 40.3 µM | > 100 µM | 39.7 µM | > 71.9 µM | 24.4 µM | > 80 µM | > 51 µM | > 93.1 µM | > 54.8 µM | > 100 µM |
| Cc1occc1C(=S)Nc1ccc(Cl)c(C(=O)OC(C(C)C)C(C)C)c1 |  | 30.9 µM |  | 31.8 µM |  | 24.9 µM |  | 32 µM |  | 33.5 µM |  | 31.5 µM |  | 32.2 µM |  | 29.6 µM |  | 53.2 µM |  | 32.4 µM |
| CCCN(CCC)c1ccc(/C=C/c2ccc3cc(OCC)ccc3n2)cc1 | > 100 µM | > 100 µM | 75.4 µM | > 100 µM | 63.4 µM | > 100 µM | > 100 µM | > 100 µM | 15 µM | > 100 µM | > 100 µM | > 100 µM | 58.6 µM | > 100 µM | 6.29 µM | > 100 µM | > 100 µM | > 100 µM | > 100 µM | > 100 µM |
| CNC(=S)NC(=O)c1c(Cl)n(C(=O)OC(C)(C)C)c2ccccc12 | 91.1 µM | > 100 µM | 84.3 µM | > 100 µM | 89.6 µM | > 100 µM | 94.2 µM | > 100 µM | 56.7 µM | > 100 µM | 21 µM | > 100 µM | > 100 µM | > 100 µM | 20.5 µM | 68.9 µM | > 100 µM | > 100 µM | 97.5 µM | > 100 µM |
| CC(=O)N1C/C(=C/c2ccc(Cl)cc2)C(=O)/C(=C/c2ccc(Cl)cc2)C1 | 0.575 µM | 1.87 µM | 0.633 µM | 4.5 µM | 0.769 µM | 2.05 µM | 1.13 µM | 2.62 µM | 0.254 µM | 0.619 µM | 0.761 µM | 2.11 µM | 1.17 µM | 3.49 µM | 0.0889 µM | 0.463 µM | 1.61 µM | 3.39 µM | 1.94 µM | 4.1 µM |
| C=C(NC(=O)C(=C)NC(=O)c1csc(C2=NC3c4csc(n4)C4NC(=O)c5csc(n5)C(C(C)(O)C(C)O)NC(=O)C5CSC(=N5)C(=CC)NC(=O)C(C(C)O)NC(=O)c5csc(n5)C3(CC2)NC(=O)C(C)NC(=O)C(=C)NC(=O)C(C)NC(=O)C(C(C)CC)NC2C=Cc3c(C(C)O)cc(nc3C2O)C(=O)OC4C)n1)C(N)=O (centres undefined) | 5.49 µM | 19.7 µM | 57.3 µM | > 100 µM | 8.25 µM | > 100 µM | 58.7 µM | > 100 µM | 10.4 µM | > 100 µM | 64.8 µM | > 100 µM | 2.18 µM | 7.71 µM | 1.79 µM | 19.7 µM | 54 µM | > 100 µM | 65.5 µM | > 100 µM |
